The source of these data is patent publication US7250157B2, “Dermatological compositions and methods” (Applied Genetics Incorporated Dermatics, priority 1996, dated 2007).

The test system of series [1] is tyrosinase activity in S91 mouse melanoma cells. The series can be described thus: Induction of tyrosinase activity in S91 cells. Conditions: for more tyrosinase activity than 5-norbornene-2,2-dimethanol: calculated from data in FIG. 5; for Tyrosinase dpm/hr 10^3 Cells / Tyrosinase dpm/hr ug Protein: 300 mM PG-1,2, 25 mM 3,3-M-1,2-BD, 50 mM 1,2-cs-CPD, 5 mM 5-NBene-2,2-DM, 0.5 mM 2,3-Pyd, 0.1 mM IBMX, mean ±SE.
Method: Compounds were examined for their ability to induce tyrosinase activity in S91 mouse melanoma cells. […] Following treatments, cells were trypsinized, counted by Coulter, pelleted by centrifugation at 1000×g, and analyzed for tyrosinase activity using modifications of previously described procedures (Pomerantz, S. H., 1966, J. Biol. Chem. 241:161-168; Jara, et al., 1988, Pigment Cell Res. 1: 332-339.). Briefly, cell pellets were solubilized by sonicating for 5 seconds in 600 ul 50 mM phosphate buffer pH 6.8 containing 0.5% Triton-X100, followed by vortexing, incubation on ice for 30 min, and then revortexing. From this, 200 ul aliquots were combined with 200 ul of reaction mixture containing either 75 uM tyrosine, 75 uM L-Dopa, and 2 uCi L-[3,5-^3H]Tyrosine in 50 mM NaPO4 pH 6.8 (L-Dopa+), or, 75 uM tyrosine, and 2 uCi L-[3,5-^3H]Tyrosine in 50 mM NaPO4 pH 6.8 (L-Dopa−) and incubated 1 hr at 37° C. Reactions were stopped by addition of 400 ul 10% activated charcoal in 0.1N HCl and incubation on ice for 15 min. This mixture was centrifuged at 17,300×g for 5 min, and 400 ul supernatant was then filtered through a 0.22 uM GV Durapore centifugal filter unit (Millipore) by centrifuging at 17,300×g for 5 min. Filtrate was added to 4 ml Fisher Plus scintillation fluid and counted on a Hewlett Packard scintillation counter. Tyrosinase activity was calculated as dpm/hr/ug protein and dpm/hr/10^3 cells. Each sample was analyzed with and without L-Dopa, a necessary cofactor for tyrosinase (Pomerantz, S. H., 1966, J. Biol. Chem. 241:161-168; McLane, et al., 1987, Biochem. Biophys. Res. Commun. 145:719-725). All reported tyrosinase values are exclusive of counts that occurred in buffer blanks and L-dopa negative aliquots. Protein was determined on aliquots of cell lysate, extracellular particulate lysate or media by the Bradford Coomassie Blue method (Bradford, 1967, Anal. Biochem. 72:248-254) using Bio-Rad Protein Assay Kit I.

Series [2] concerns nitric oxide in cell-free media from S91 cells. The series can be described thus: Nitric oxide in cell-free media from S91 cells (Greiss reagent). As to conditions: 4 days. It counts as cell-based, mouse. As for the experimental part: In a related experiment, nitric oxide was measured in cell-free media from S91 cells following treatment with a range of concentrations of 2,3-cis/exo-pinanediol or 5-norbornene-2,2-dimethanol for 4 days. In biological fluids, nitric oxide is converted into nitrite and nitrate with seconds of production. Therefore, nitric oxide is measured by first converting nitrate to nitrite using nitrate reductase, followed by addition of Greiss reagent to detect nitrite as optical density at 550 nm (Moshage, et al., 1995, Clin. Chem. 41:892-896; Schmidt, et al., 1995, Biochemica 2:22)). […] Moreover, the relative melanogenic potency of 2,3-cis/exo-pinanediol and 5-norbornene-2,2-dimethanol shown in FIG. 5 paralleled the relative potency of these compounds with regards to induction of nitric oxide (Table 17). […] It follows that measurement of induction of nitric oxide, cGMP or PKG may provide biochemically relevant screening assays for compounds that may be melanogenic. Thus, the utilization of these assays to screen compounds for melanogenic activity is claimed in the present invention.

For series [3], the system named is Cloudman S91 mouse melanoma cell line. Nature of the series: Cell count (proliferation, toxicity) of treated S91 cells. It is filed as cell-based. As to conditions: for Cells (×10^6): 4 days, X ± SE, n = 3. The procedure: The Cloudman S91 mouse melanoma cell line was obtained from American Type Culture Collection (ATCC). Cells were cultured in Dulbecco's Modified Eagles Medium (DMEM) containing 10% calf serum, 2 mM L-glutamine, 10 U Penicillin/ml and 10 ug Streptomycin/ml according to a previously published protocol (Eller, et al., Proc. Natl. Acad. Sci. 93:1087-92. 1996). For testing propylene glycol and analogues for induction of melanogenesis, S91 cells were plated at 10^5 cells/35 mm dish in 10% calf serum. One day after plating, media was removed and replaced with media containing 2% calf serum and test compounds (Eller, et al., 1996). Cells were cultured for 6 days at 37° C. in 5% CO2 in a humidified incubator. Following this treatment period, cells were examined microscopically and the portion of dedifferentiated and differentiated cells was estimated. Previous studies have shown that dedifferentiated S91 cells have a rounded, spindly appearance while differentiated S91 cells have a flattened, cuboidal, multipolar and dendritic appearance (Orlow, et al., Exp. Cell Res. 191:209-218, 1990).
Following this microscopic examination, cells were detached from dishes by trypsin. The time required for detachment by trypsin was recorded as an additional indicator of the phenotypic effects of test compounds. For each treatment, a subsample of cells was counted to determine the effects of treatment compounds on cellular proliferation. The remainder of cells were used for determination of melanin content. Melanin was extracted from cells by vortexing for 15 min in 1N NaOH. Standards were prepared by dissolving melanin (Sigma) in 1 N NaOH (Eller, et al., 1996). Absorbance of standards and samples was measured at 475 nm. Melanin was expressed as pg melanin/cell.

For series [4], the system named is American short-haired guinea pigs. The series can be described thus: Topical melanogenesis (pigmentation rating) in guinea pigs. As to conditions: for Pigmentation Rating Normalized to 1,2-PG / Pigmentation Rating Normalized to 1M / Pigmentation Rating Background Corrected / Pigmentation Rating: No Penetration Enhancer; for Pigmentation Rating Normalized to 1,2-PG / Pigmentation Rating Normalized to 1M / Pigmentation Rating Background Corrected: concentrations as E85; for Pigmentation Rating Background Corrected: corrected for Nair control; for Pigmentation Rating: sites c and d, 11.0M 2,3-M-2,3-BD, 11.3M 2-M-1,3-PG, 8.7M 1,2-cs-CPD, 4.0M 3,3-M-1,2-BD. The arrangement: Pigmentation Rating / Pigmentation Rating Background Corrected: scale not given here. It counts as in vivo, guinea pig. As for the experimental part:
Compounds were tested for melanogenic activity in vivo by application to American short-haired guinea pigs. Treatment sites were created by removal of fur using Nair® brand depilatory. In the Table, the numbers presented are the relative melanogenesis rating (mean ±SE), and are arranged according to the relative location on the animal, with the head being to the left and the tail being to the right. Propylene glycol (PG=13.6M), 2,3-butanediol (2,3-BD=10.95M), and 1,2-cis-cyclopentanediol (1,2-cs-CPD=10.7M) were applied as full strength solutions. 3,3-dimethyl-1,2-butanediol (3,3-M-1,2-BD) was applied as a 4M solution dissolved in ethanol. Two weeks following cessation of treatments, the degree of pigmentation was subjectively rated according to the following scale:
In order to minimize the effects of dimunition of response from head to tails of animals, all future experiments were done using only treatment spots located towards the tails of animals (c and d in Table 7). Deemed as additionally beneficial, in this area of the animal differences of responsiveness to strong and weak inducers of pigmentation, as deduced from cell culture, were greatest. […] Pigmentation ratings were corrected for background (control treatment spots), normalized to 1M to account for the different amounts of each agent applied, and then normalized to results for 1,2-PG (Table 8). […] It is anticipated that further improvements in formulation will additionally improve responsiveness to 5-NBene-2,2-DM and other compounds in this invention.
In FIG. 5, a, b, c and d indicate treatment spots that transverse the anterior-posterior axis along the backs of guinea pigs.

Series [5] concerns Normal human epidermal melanocytes (NHEMs). The series can be described thus: Melanin induction in normal human epidermal melanocytes. It counts as cell-based. As for the experimental part:
Normal human epidermal melanocytes (NHEMs) were examined for induction of melanogenesis using cells and media from Clonetics Corporation (San Diego, Calif.). Cells were cultured exactly as specified by the supplier.

Series [6] relates to Cloudman S91 mouse melanoma cell line. The series can be described thus: Melanin content of S91 cells after treatment with test compound. It is filed as cell-based. The procedure: The Cloudman S91 mouse melanoma cell line was obtained from American Type Culture Collection (ATCC). […] For testing propylene glycol and analogues for induction of melanogenesis, S91 cells were plated at 10^5 cells/35 mm dish in 10% calf serum. […] Cells were cultured for 6 days at 37° C. in 5% CO2 in a humidified incubator. Following this treatment period, cells were examined microscopically and the portion of dedifferentiated and differentiated cells was estimated.
Following this microscopic examination, cells were detached from dishes by trypsin. The time required for detachment by trypsin was recorded as an additional indicator of the phenotypic effects of test compounds. For each treatment, a subsample of cells was counted to determine the effects of treatment compounds on cellular proliferation. The remainder of cells were used for determination of melanin content. […] Absorbance of standards and samples was measured at 475 nm. Melanin was expressed as pg melanin/cell.

The mark [7] stands for this setting: spot a (anterior), 8.7M 1,2-cis-CPD in 20% ETOH, 1M 5-NBene-2,2-DM in 8.5 M propylene glycol, 2% 2-pyrrolidone, 20% ETOH, 1M 2,3-cs/ex PD in 50% ETOH.
Setting [8] is: spot d (posterior), formulations as E220.
Where [9] appears, read: range of concentrations up to a toxic dose.

In the case of `CC1(C)[C@@H]2C[C@H]1[C@@](C)(O)[C@@H](O)C2` (relative stereo) [2,3-cs/ex-PD, 2,3-cis/exo-pinanediol ([1R,2R,3S,5R]-[−]-pinanediol)], the “Fold Induction of Tyrosinase Relative to Controls” value in series [1] (0.5 mM (Table 19)) is reported as 5.1X; in series [1] (1 mM (Table 19)), 17.6X; in series [1] (2.5 mM (Table 19)), 119X; in series [1] (5 mM (Table 19)), 50.6X. The “more tyrosinase activity than 5-norbornene-2,2-dimethanol” value in series [1] (500 uM) is on record as 2.6 fold; in series [1] (1 mM), 5.2 fold; in series [1] (2.5 mM), 7.3 fold. Moreover, the “relative melanogenic potency in S91 cells (in words)” value in series [1] (Table 19 data) is on record as “only slightly more potent than (1S, 2S, 3R, 5S)-(+)-pinanediol”. Moreover, the “nmoles NO/10^6 Cells” value in series [2] (0.5 mM) amounted to 10.9 ± 0.2 nmoles NO/10^6 Cells; in series [2] (1 mM), 24.5 ± 5.4 nmoles NO/10^6 Cells; in series [2] (2.5 mM), 131 ± 15 nmoles NO/10^6 Cells; in series [2] (5 mM), 174 ± 15 nmoles NO/10^6 Cells. The “uM NO” value in series [2] (0.5 mM) was found to be 3.54 ± 0.06 µM; in series [2] (1 mM) it was 6.36 ± 1.56 µM; in series [2] (2.5 mM), 12.6 ± 0.5 µM; in series [2] (5 mM), 11.0 ± 1.1 µM. Also, the “Cells (×10^6)” value in series [3] (0.5 mM) is 0.325 ± 0.002 ×10^6; in series [3] (1 mM) it was 0.258 ± 0.010 ×10^6; in series [3] (2.5 mM) it was 0.099 ± 0.014 ×10^6; in series [3] (5 mM), 0.064 ± 0.006 ×10^6. Further, the “Pigmentation Ratings (X ± SE; n = 6; scale 0 to +4)” value in series [4] (setting [7]) was 2.00 ± 0.20; in series [4] (spot b, formulations as E220), 1.75 ± 0.17; in series [4] (spot c, formulations as E220) it was 1.75 ± 0.17; in series [4] (setting [8]), 1.04 ± 0.32.
Turning to `O[C@@H]1CCC[C@@H]1O` [1,2-cs-CPD, 1,2-cis-cyclopentanediol], in series [1], the “Tyrosinase dpm/hr 10^3 Cells” value is on record as 276 ± 16 dpm/hr/10^3 Cells and the “Tyrosinase dpm/hr ug Protein” value is listed as 925 ± 53 dpm/hr/ug Protein. Further, the “Concentration Required for ≧1.5-fold Melanin Induction in NHEMs” value in series [5] came to 50 mM. In addition, the “Concentration Required for ≧2-fold Melanin Induction in S91 Cells” value in series [6] was 10 mM. In series [4], the “Pigmentation Rating Normalized to 1,2-PG” value was found to be 13.5 ± 1.9, the “Pigmentation Rating Normalized to 1M” value stood at 0.202 ± 0.029 and the “Pigmentation Rating Background Corrected” value was 1.75 ± 0.25. The “Pigmentation Rating” value in series [4] (13.61M 1,2-PG) worked out at 1.89 ± 0.27. In series [4] (guinea pig, 5 days), the “greater melanogenesis than PG applied at similar body locations” value is recorded as 5.5 fold. Also, the “relative melanogenesis rating (mean ±SE), scale 0-4” value in series [4] (site d (tail), 25 μl twice per day for 5 days, rated two weeks after, full strength solutions) was 1.83 ± 0.33^2. The “Pigmentation Ratings (X ± SE; n = 6; scale 0 to +4)” value in series [4] (setting [7]) is given as 1.83 ± 0.17. Besides, the “Pigmentation Ratings (X ± SE; n = 6; scale 0 to +4)” value in series [4] (spot b, formulations as E220) was 1.92 ± 0.43. Also, the “Pigmentation Ratings (X ± SE; n = 6; scale 0 to +4)” value in series [4] (spot c, formulations as E220) was 1.92 ± 0.20. The “Pigmentation Ratings (X ± SE; n = 6; scale 0 to +4)” value in series [4] (setting [8]) is 1.58 ± 0.24.
For the compound `CC(C)(O)C(C)(C)O` [2,3-M-2,3-BD, 2,3-dimethyl-2,3-butanediol], the “Concentration Required for ≧1.5-fold Melanin Induction in NHEMs” value in series [5] is reported as 50 mM. Also, the “Concentration Required for ≧2-fold Melanin Induction in S91 Cells” value in series [6] was 25 mM. Besides, in series [4], the “Pigmentation Rating Normalized to 1,2-PG” value worked out at 1.0 ± 0.6, the “Pigmentation Rating Normalized to 1M” value amounted to 0.015 ± 0.008 and the “Pigmentation Rating Background Corrected” value is given as 0.17 ± 0.09. Further, in series [4] (13.61M 1,2-PG), the “Pigmentation Rating” value turned out to be 0.25 ± 0.14. Also, the “pigmentation response versus control (Nair or 2% 2P treated) spots” value in series [4] (sites towards tail, 13.61M 1,2-PG, 10.6M 1,2-PG/2% 2P, 11M 2,3-dimethyl-2,3-butanediol) is given as “not significantly different from control”.
`Oc1cccnc1O` [2,3-Pyridinediol, 2,3-pyridinediol]: in series [1], the “Tyrosinase dpm/hr 10^3 Cells” value amounted to 142 ± 8 dpm/hr/10^3 Cells and the “Tyrosinase dpm/hr ug Protein” value is given as 160 ± 19 dpm/hr/ug Protein. The “Concentration Required for ≧1.5-fold Melanin Induction in NHEMs” value in series [5] worked out at 0.2 mM. Moreover, the “toxicity to S91 cells” value in series [3] (levels higher than 500 uM) is on record as “toxic”. For the same compound, the “Concentration Required for ≧2-fold Melanin Induction in S91 Cells” value in series [6] is 0.1 mM.
With `O=C[C@H](O)[C@H](O)[C@H](O)CO` [D-ribose], in series [5] (setting [9]), the “melanin induction in NHEMs (in words)” value was “inactive”. For the same compound, in series [6] (setting [9]), the “melanogenesis in S91 cells (≧2-fold increase = significant)” value is “did not induce significant (≧2-fold increase) melanogenesis”.
